We go through 26 compounds from patent US20190211020A1 (Agency for Science, Technology and Research, priority 2012, published 2019).

In general, IC50 refers to the concentration that inhibits the measured activity by half.

Where a name gives a salt, the structure may show the parent alone.

One test has as its system eIF4E Ser209 phosphorylation in Hela cells. Description: MNK cell-based assay (AlphaScreen SureFire, eIF4E Ser209 phosphorylation). As to conditions: Homo sapiens; eIF4E Ser209 phosphorylation, Hela cells, 2 hours; read-out: IC50 Hela. An excerpt: It has been reported that Ser209 of eIF4E is solely phosphorylated by the MNK enzymes. The ability of compounds to inhibit this process in Hela cells was investigated using the AlphaScreen SureFire® assay platform from Perkin Elmer (Waltham, Mass.). eIF4E phosphorylated on Ser209 is recognized by two antibodies, the first which is fused to a streptavidin coated donor bead binds to an epitope away from Ser209, the second which is fused to a protein A conjugated acceptor bead binds to phosphorylated Ser209. The phosphorylation of eIF4E on Ser209 brings the two antibodies into close proximity and when excited by a laser a singlet oxygen is released by the donor bead which excites the acceptor bead resulting in the emission of light. This enables the monitoring of eIF4E Ser209 phosphorylation and its inhibition in a cellular context.
Hela cells were seeded into microtitre plates (30,000 cells per well) in 100 μl of culture medium and incubated at 37° C. for 24 hours. The media was then removed by aspiration and the cells resuspended in 50 μl of serum free medium containing the test compound and incubated at 37° C. for 2 hours. The culture medium was again removed by aspiration and the cells resuspended in lysis buffer (provided in Perkin Elmer SureFire® Assay Kit). After agitation at 350 rpm for 20 minutes at 22° C., 4 μl was transferred to a 384 well OptiPlate™ (Perkin Elmer, Waltham, Mass.). To each well was added 5 μl of acceptor mix; the plate was sealed and agitated gently at 22° C. for 2 hours. Then, in subdued light, 2 μl of donor mix was added to each well, the plate was sealed, wrapped in aluminum foil and agitated gently at 22° C. for 2 hours. Emission was measured using the EnVision® plate reader (Perkin Elmer, Waltham, Mass.).
Inhibition constants (IC50) were determined by plotting AlphaScreen signal versus log compound concentration and fitting with a non-linear regression algorithm using GraphPad Prism (GraphPad Software Inc.).
Background: Bead proximity is the source of the signal in Alpha formats.
As to `CN(C)C1CCN(C(=O)c2ccc(-c3cn4c(-c5ccc(C#N)cc5)cnc4cn3)cc2)CC1` [Example 21, 4-(6-(4-(4-(dimethylamino)piperidine-1-carbonyl)phenyl)imidazo [1,2-a]pyrazin-3-yl)benzonitrile], the IC50 was less than 1 µM.

Consider `CN1CCN(C(=O)c2ccc(-c3ccc4ncc(-c5ccc6[nH]cnc6c5)n4n3)cc2)CC1` [Example 87, (4-(3-(1H-benzo[d]imidazol-5-yl)imidazo[1,2-b]pyridazin-6-yl)phenyl)(4-methylpiperazin-1-yl)methanone], for which the IC50 is less than 1 µM. Same read-out and setting: the same measure for `N#Cc1ccc(-c2cnc3ccc(-c4ccc(C(=O)NCCN5CCOCC5)cc4)cn23)cc1` [Example 116, 4-(3-(4-cyanophenyl)imidazo[1,2-a]pyridin-6-yl)-N-(2-morpholinoethyl)benzamide]: less than 1 µM; for `Cc1cc(-c2ccc3ncc(-c4ccc(C#N)cc4)n3n2)ccc1C(=O)N1CCN(C)CC1` [Example 74, 4-(6-(3-methyl-4-(4-methylpiperazine-1-carbonyl)phenyl)imidazo[1,2-b]pyridazin-3-yl)benzonitrile]: less than 1 µM; for `CN1CCN(C(=O)c2ccc(-c3ccc4ncc(-c5ccc(C#N)cc5)n4c3)cc2C(F)(F)F)CC1` [Example 145, 4-(6-(4-(4-methylpiperazine-1-carbonyl)-3-(trifluoromethyl)phenyl)imidazo[1,2-a]pyridin-3-yl)benzonitrile]: less than 1 µM. On the same count and under the same terms, the same measure for `CCC1(NC(C)=O)CCN(C(=O)c2ccc(-c3ccc4ncc(-c5ccc(C#N)cc5)n4n3)cc2)CC1` [Example 66, N-(1-(4-(3-(4-cyanophenyl)imidazo[1,2-b]pyridazin-6-yl)benzoyl)-4-ethylpiperidin-4-yl)acetamide]: less than 1 µM. Regarding `N#Cc1ccc(-c2cnc3ccc(-c4ccc(C(=O)N5CCNCC5)cc4)nn23)cc1` [Example 65, 4-(6-(4-(piperazine-1-carbonyl)phenyl)imidazo [1,2-b]pyridazin-3-yl)benzonitrile], the IC50 was less than 1 µM.

With `CC(C)N1CCN(C(=O)c2ccc(-c3ccc4ncc(-c5ccc(C#N)cc5)n4n3)cc2)CC1` [Example 59, 4-(6-(4-(4-isopropylpiperazine-1-carbonyl)phenyl)imidazo [1,2-b]pyridazin-3-yl)benzonitrile], the half-inhibitory concentration (IC50) was less than 1 µM. Turning to `CC(=O)NC1CCN(C(=O)c2ccc(-c3ccn4ncc(-c5ccc(C#N)cc5)c4n3)cc2)CC1` [Example 186, N-(1-(4-(3-(4-cyanophenyl)pyrazolo[1,5-a]pyrimidin-5-yl)benzoyl)piperidin-4-yl)acetamide], the IC50 was less than 1 µM. The same measure, in the same setting: the same measure for `COc1cc(-c2ccc3ncc(-c4ccc(C#N)cc4)n3c2)ccc1C(=O)N1CCOCC1` [Example 158]: less than 1 µM; for `CN1CCN(C(=O)c2ccc(-c3ccc4ncc(-c5ccc(C#N)cc5)n4n3)cc2[N+](=O)[O-])CC1` [Example 79, 4-(6-(4-(4-methylpiperazine-1-carbonyl)-3-nitrophenyl)imidazo[1,2-b]pyridazin-3-yl)benzonitrile]: less than 1 µM; for `N#Cc1ccc(-c2cnc3ccc(-c4ccc(C(=O)N5CCOCC5)c(O)c4)cn23)cc1` [Example 167, 4-(6-(3-hydroxy-4-(morpholine-4-carbonyl)phenyl)imidazo[1,2-a]pyridin-3-yl)benzonitrile]: less than 1 µM. On the same count and under the same terms, the same measure for `CN1CCC(C2CCN(C(=O)c3ccc(-c4ccc5ncc(-c6ccc(C#N)cc6)n5c4)cc3)CC2)CC1` [Example 105, 4-(6-(4-(1′-methyl-4,4′-bipiperidine-1-carbonyl)phenyl)imidazo[1,2-a]pyridin-3-yl)benzonitrile]: less than 1 µM; for `CN1CCN(C2CCN(C(=O)c3ccc(-c4ccc5ncc(-c6ccc(C#N)cc6)n5n4)cc3)CC2)CC1` [Example 70, 4-(6-(4-(4-(4-methylpiperazin-1-yl)piperidine-1-carbonyl)phenyl)imidazo [1,2-b]pyridazin-3-yl)benzonitrile]: less than 1 µM. Still for that read-out and setting: the result for `CC(=O)NC1(C)CCN(C(=O)c2ccc(-c3ccc4ncc(-c5ccc(C#N)cc5)n4c3)cc2)CC1` [Example 99, N-(1-(4-(3-(4-cyanophenyl)imidazo[1,2-a]pyridin-6-yl)benzoyl)-4-methylpiperidin-4-yl)acetamide] reads less than 1 µM; that for `CN1CCN(C(=O)c2ccc(-c3ccc4ncc(-c5ccc(C#N)cc5)n4c3)cc2)CC1=O` [Example 130, 4-(6-(4-(4-methyl-3-oxopiperazine-1-carbonyl)phenyl)imidazo[1,2-a]pyridin-3-yl)benzonitrile], less than 1 µM. Turning to `CC(=O)NC1CCN(C(=O)c2ccc(-c3ccc4ncc(-c5ccc(C#N)cc5)n4n3)cc2)CC1` [Example 57, N-(1-(4-(3-(4-cyanophenyl)imidazo[1,2-b]pyridazin-6-yl)benzoyl)piperidin-4-yl)acetamide], the IC50 is less than 1 µM.

Consider `N#Cc1ccc(-c2cnc3cnc(-c4ccc(C(=O)N5CCC6(CC5)COC6)cc4)cn23)cc1` [Example 24, 4-(6-(4-(2-oxa-7-azaspiro[3.5]nonane-7-carbonyl)phenyl)imidazo[1,2-a]pyrazin-3-yl)benzonitrile], for which the IC50 is less than 1 µM. The same measure, in the same setting: the same measure for `CN1CCN(C(=O)c2ccc(-c3ccc4ncc(-c5ccc(C#N)cc5)n4c3)cc2N(C)C)CC1` [Example 147, 4-(6-(3-(dimethylamino)-4-(4-methylpiperazine-1-carbonyl)phenyl)imidazo[1,2-a]pyridin-3-yl)benzonitrile]: less than 1 µM; for `N#Cc1ccc(-c2cnc3ccc(-c4ccc(C(=O)N5CCNCC5)cc4)cn23)cc1` [Example 165, 4-(6-(4-(piperazine-1-carbonyl)phenyl)imidazo [1,2-a]pyridin-3-yl)benzonitrile]: less than 1 µM; for `CC1(N)CCN(C(=O)c2ccc(-c3cn4c(-c5ccc(C#N)cc5)cnc4cn3)cc2)CC1` [Example 23, 4-(6-(4-(4-amino-4-methylpiperidine-1-carbonyl)phenyl)imidazo[1,2-a]pyrazin-3-yl)benzonitrile hydrochloride salt]: less than 1 µM. For `N#Cc1ccc(-c2cnc3ccc(-c4ccc(C(=O)N5CCCOCC5)cc4)cn23)cc1` [Example 97, 4-(6-(4-(1,4-oxazepane-4-carbonyl)phenyl)imidazo [1,2-a]pyridin-3-yl)benzonitrile], the IC50 was less than 1 µM. With `CN1CCN(C2CCN(C(=O)c3ccc(-c4ccn5ncc(-c6ccc(C#N)cc6)c5n4)cc3)CC2)CC1` [Example 179, 4-(5-(4-(4-(4-methylpiperazin-1-yl)piperidine-1-carbonyl)phenyl)pyrazolo[1,5-a]pyrimidin-3-yl)benzonitrile], the IC50 is less than 1 µM. On to `CN(C)C1CCN(C(=O)c2ccc(-c3ccc4ncc(-c5ccc(C#N)cc5)n4c3)cc2)CC1` [Example 112, 4-(6-(4-(4-(dimethylamino)piperidine-1-carbonyl)phenyl)imidazo[1,2-a]pyridin-3-yl)benzonitrile], for which the IC50 is less than 1 µM. On the same count and under the same terms, the result for `CC1(N)CCN(C(=O)c2ccc(-c3cn4c(-c5ccc(C#N)cc5)cnc4cn3)cc2F)CC1` [Example 30, 4-(6-(4-(4-amino-4-methylpiperidine-1-carbonyl)-3-fluorophenyl)imidazo[1,2-a]pyrazin-3-yl)benzonitrile] reads less than 1 µM.

The same test, now with this note: eIF4E Ser209 phosphorylation, Hela cells, 2 hours; read-out: IC50 Hela.
For `CN1CCN(C(=O)c2ccc(-c3ccc4ncc(-c5ccc(C#N)cc5)n4c3)c(O)c2)CC1` [Example 144], the IC50 was less than 1 µM.
